The target of assay [1] is T1, wild type P450cam (Pseudomonas putida, UniProt P00183). Nature of the assay: Turnover rate measured as NADH consumption rate, wild type. Format: biochemical, P. putida. Also noted: reconstituted with putidaredoxin and putidaredoxin reductase.
Target sequence in this assay (P00259 whole entry): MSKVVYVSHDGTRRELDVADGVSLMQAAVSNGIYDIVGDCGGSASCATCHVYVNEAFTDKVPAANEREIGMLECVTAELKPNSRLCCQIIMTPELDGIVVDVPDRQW
Target sequence in this assay (P00183 whole entry): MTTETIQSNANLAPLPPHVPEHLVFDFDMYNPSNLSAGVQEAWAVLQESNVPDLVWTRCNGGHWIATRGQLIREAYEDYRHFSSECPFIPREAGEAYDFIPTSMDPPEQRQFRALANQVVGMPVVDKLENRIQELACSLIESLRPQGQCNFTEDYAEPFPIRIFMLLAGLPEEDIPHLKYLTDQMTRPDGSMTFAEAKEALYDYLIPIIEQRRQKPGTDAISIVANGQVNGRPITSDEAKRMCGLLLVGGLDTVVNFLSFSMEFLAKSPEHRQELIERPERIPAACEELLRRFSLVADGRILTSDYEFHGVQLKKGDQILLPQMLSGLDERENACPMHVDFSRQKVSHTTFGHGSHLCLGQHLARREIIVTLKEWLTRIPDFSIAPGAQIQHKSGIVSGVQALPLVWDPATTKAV
Target sequence in this assay (P16640 whole entry, further chain): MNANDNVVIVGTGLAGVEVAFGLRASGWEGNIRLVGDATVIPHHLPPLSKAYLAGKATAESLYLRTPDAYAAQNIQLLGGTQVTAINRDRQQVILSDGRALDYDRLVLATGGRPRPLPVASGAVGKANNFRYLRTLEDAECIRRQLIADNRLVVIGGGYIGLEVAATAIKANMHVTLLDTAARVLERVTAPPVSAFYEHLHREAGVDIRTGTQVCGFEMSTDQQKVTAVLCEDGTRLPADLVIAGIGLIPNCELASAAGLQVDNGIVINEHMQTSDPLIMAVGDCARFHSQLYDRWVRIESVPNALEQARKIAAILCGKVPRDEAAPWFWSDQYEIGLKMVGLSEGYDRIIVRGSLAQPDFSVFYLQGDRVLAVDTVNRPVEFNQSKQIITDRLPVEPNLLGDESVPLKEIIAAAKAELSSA
In assay [2] the target is T2, P450cam mutant Y96A, C334A (Pseudomonas putida, UniProt P00183, C335A/Y97A).
T2 construct: reconstituted with putidaredoxin and putidaredoxin reductase
It counts as biochemical, P. putida. Conditions: also contains C334A. The protocol:
A solution containing 10 μM putidaredoxin, 2 μM putidaredoxin reductase, 1 μM cytochrome P-450cam mono-oyxgenase (wild-type or mutant) and 1 mM diphenylmethane in 100 mM KC1, 20 mM KH2 PO4 pH7.4 was preincubated at 25° C. in a shaker for 5 min. The enzymatic reaction was initiated by firstly adding NADH to a total concentration of 2 mM. Further four aliquots of NADH (to increase the NADH concentration by 1 mM each time) were added in intervals of 5 min and the reaction quenched after 30 min by adding 0.5 ml chloroform. The chloroform layer was analysed by gas chromatography.
(§1) Reaction products for some substrate compounds have been purified by high performance liquid chromatography and identified by mass spectroscopy, nuclear magnetic resonance, and/or co-elution. […] Table 4(a) to 4(h) details the product distributions for mutant and substrate combinations where this has been elucidated to date.
All mutants listed below also contain the C334A mutation.
Turnover rate measured as NADH consumption rate
(nmole NADH/nmole P450cam/s).

The target of assay [3] is T3, P450cam mutant Y96F, C334A (Pseudomonas putida, UniProt P00183, C335A/Y97F).
T3 construct: reconstituted with putidaredoxin and putidaredoxin reductase
T3 sequence (P16640 whole entry): as the sequence (P16640 whole entry, further chain) above
T3 sequence (P00183 2-415 Y97F/C335A): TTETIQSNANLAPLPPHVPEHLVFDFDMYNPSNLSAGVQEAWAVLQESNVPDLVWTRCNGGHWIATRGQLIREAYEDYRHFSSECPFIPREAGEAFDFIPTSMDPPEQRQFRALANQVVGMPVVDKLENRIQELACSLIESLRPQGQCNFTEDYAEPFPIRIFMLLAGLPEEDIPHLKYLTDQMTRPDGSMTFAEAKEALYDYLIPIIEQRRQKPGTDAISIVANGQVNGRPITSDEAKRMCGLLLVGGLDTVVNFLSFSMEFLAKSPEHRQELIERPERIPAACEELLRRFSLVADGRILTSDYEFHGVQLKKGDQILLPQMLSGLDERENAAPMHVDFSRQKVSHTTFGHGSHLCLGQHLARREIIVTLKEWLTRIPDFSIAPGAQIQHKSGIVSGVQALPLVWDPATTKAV
T3 sequence (P00259 whole entry, further chain): as the sequence (P00259 whole entry) above
It counts as biochemical, P. putida. As to the method:
(§2) […] The enzymatic reaction was initiated by firstly adding NADH to a total concentration of 2 mM. Further four aliquots of NADH (to increase the NADH concentration by 1 mM each time) were added in intervals of 5 min and the reaction quenched after 30 min by adding 0.5 ml chloroform. The chloroform layer was analysed by gas chromatography.
as §1
(§3) Product structure and distributions following oxidation of substrates
(§4) active site mutants. All mutants shown below also contain the C334A

The target in assay [4] is T4, P450cam mutant F87A-F96G-F193A (C334A) (Pseudomonas putida, UniProt P00183, C335A/F194A/F88A/Y97G).
T4 construct: reconstituted with putidaredoxin and putidaredoxin reductase
T4 sequence (P00259 whole entry): as above
T4 sequence (P16640 whole entry, further chain): as the sequence (P16640 whole entry, further chain) above
T4 sequence (P00183 2-415 F88A/Y97G/F194A/C335A): as the sequence (P00183 2-415 Y97F/C335A) above, with F87A, F96G, F193A counted along it
It counts as biochemical, P. putida. As to the method: as §2, §1, §3, §4

For assay [5], the target named is T2, P450cam mutant Y96A, C334A. Format: biochemical, P. putida. As to the method:
as §2, §1, §3, §4

Assay [6] has as its target T5, P450cam mutant Y96V, C334A (Pseudomonas putida, UniProt P00183, C335A/Y97V).
T5 construct: reconstituted with putidaredoxin and putidaredoxin reductase
The experiment in a line: Product distribution following oxidation of substrates, Y96V (also C334A). Format: biochemical, P. putida. The protocol: as §2, §1, §3, §4

The target of assay [7] is T1, wild type P450cam. The experiment in a line: Product distribution following oxidation of substrates, WT. Format: biochemical, P. putida. Also noted: reconstituted with putidaredoxin and putidaredoxin reductase. The protocol:
as §2, §1, §3
Target sequence in this assay (P00259 whole entry): as the sequence (P00259 whole entry) above
Target sequence in this assay (P00183 whole entry): as the sequence (P00183 whole entry) above
Target sequence in this assay (P16640 whole entry, further chain): as the sequence (P16640 whole entry, further chain) above

Assay [8] addresses T6, P-450cam mutant Y96A (Pseudomonas putida, UniProt P00183, Y97A). It counts as biochemical. Also noted: key: Those substrates where oxidation has been demonstrated by means of NADH turnover are marked with a + sign.
The target in assay [9] is T6, P-450cam mutant Y96A. The experiment in a line: biochemical. It counts as binding. As to conditions: Mutant Y96A; 200 μM DTT, 200 μM test compound, phosphate buffer; read-out: Vs DTT (percentage displacement of DTT bound to P-450).
The target of assay [10] is T7, P450cam mutant Y96L, C334A (Pseudomonas putida, UniProt P00183, C335A/Y97L).
T7 construct: reconstituted with putidaredoxin and putidaredoxin reductase
T7 sequence (P00259 whole entry): as the sequence (P00259 whole entry) above
T7 sequence (P16640 whole entry, further chain): as the sequence (P16640 whole entry, further chain) above
T7 sequence (P00183 2-415 Y97L/C335A): as the sequence (P00183 2-415 Y97F/C335A) above, with F96L counted along it
The experiment in a line: Product distribution following oxidation of substrates, Y96L (also C334A). It counts as biochemical, P. putida. As to the method: as §2, §1, §3, §4

Assay [11] addresses T1, wild type P450cam. Format: binding. As to conditions: Wild type; 200 μM test compound, phosphate buffer pH 7.4.
Target sequence in this assay (P00183 whole entry): as the sequence (P00183 whole entry) above
Assay [12] has as its target T1, wild type P450cam. The experiment in a line: biochemical. Format: binding. As to conditions: Wild type; 200 μM DTT, 200 μM test compound, phosphate buffer; read-out: Vs DTT (percentage displacement of DTT bound to P-450).
Target sequence in this assay (P00183 whole entry): as above

T6 sequence (P00183 2-415 Y97A): as the sequence (P00183 2-415 Y97F/C335A) above, with F96A, A334C counted along it
T5 sequence (P16640 whole entry): as the sequence (P16640 whole entry, further chain) above
T5 sequence (P00259 whole entry, further chain): as the sequence (P00259 whole entry) above
T5 sequence (P00183 2-415 Y97V/C335A): as the sequence (P00183 2-415 Y97F/C335A) above, with F96V counted along it
T2 sequence (P00259 whole entry): as the sequence (P00259 whole entry) above
T2 sequence (P00183 2-415 Y97A/C335A): as the sequence (P00183 2-415 Y97F/C335A) above, with F96A counted along it
T2 sequence (P16640 whole entry, further chain): as the sequence (P16640 whole entry, further chain) above

In the case of `CCC(C)CC` [3-methyl pentane], the figures for the “Turnover rate measured as NADH consumption rate” value (shortened to “Turnover rate measured”) (at wild type P450cam [1]; in assay [2]) were 1.3 nmole NADH/nmole P450cam/s and 14.2 nmole NADH/nmole P450cam/s, respectively.

Consider `c1ccc2c(c1)ccc1ccccc12` [Phenanthrene], for which the Total products is 4.5 area/10^6 in [3]; 0.065 area/10^6 in assay [4]; 7.0 area/10^6 in assay [5]; 1.6 area/10^6 in assay [6]; 0.075 area/10^6 at wild type P450cam [7]; 2.8 area/10^6 in assay [10]. Also, the “Products (%): A” value in assay [3] (phenanthrene) came to 41%; in assay [4] (phenanthrene) it was 27%; in assay [5] (phenanthrene) it was 49%; in assay [6] (phenanthrene) it was 41%; at wild type P450cam [7] (phenanthrene) it was 38%; in assay [10] (phenanthrene), 35.5%. The “Products (%): B” value in [3] (phenanthrene) is listed as 31%; in assay [4] (phenanthrene), 41%; in assay [5] (phenanthrene), 23%; in [6] (phenanthrene) it was 38%; at wild type P450cam [7] (phenanthrene) it was 15%; in assay [10] (phenanthrene) it was 41%. For the same compound, the “Products (%): C” value is 5% in [3] (phenanthrene); 3% in assay [4] (phenanthrene); 13% in assay [5] (phenanthrene); 11% in [6] (phenanthrene); 12% at wild type P450cam [7] (phenanthrene); 9% in assay [10] (phenanthrene). Further, the “Products (%): D” value was 23% in assay [3] (phenanthrene); 29% in assay [4] (phenanthrene); 15% in [5] (phenanthrene); 10% in assay [6] (phenanthrene); 35% at wild type P450cam [7] (phenanthrene); 14.5% in assay [10] (phenanthrene). The “NADH turnover?” value on P-450cam mutant Y96A [8] is “+”. The percent displacement of bound DTT at 200 µM at P-450cam mutant Y96A [9] is 20%.

`CCCC(C)CCC` [4-methyl heptane]: the entries for the “Turnover rate measured” value (at wild type P450cam [1]; in [2]) were 1.4 nmole NADH/nmole P450cam/s and 10.2 nmole NADH/nmole P450cam/s, respectively.

As to `CCCCCCC` [n-Heptane], the “ΔSpin high/low (percentage of P-450 converted from low- to high-spin)” value on wild type P450cam [11] is 5%. The “Turnover rate measured” value is recorded as 2.7 nmole NADH/nmole P450cam/s on wild type P450cam [1] and 4.4 nmole NADH/nmole P450cam/s in assay [2]. The “NADH turnover?” value on P-450cam mutant Y96A [8] was “+”. Further, on P-450cam mutant Y96A [9], the percent displacement of bound DTT at 200 µM was 40%. Also, on wild type P450cam [12], the inhibition at 200 µM came out at 5%.

On to `CCCC(C)(C)C` [2,2-dimethyl pentane], for which the “Turnover rate measured” value on wild type P450cam [1] is 5.2 nmole NADH/nmole P450cam/s; in assay [2], 12.8 nmole NADH/nmole P450cam/s.

Regarding `C1CCCCCC1` [cycloheptane], the “Turnover rate measured” value at wild type P450cam [1] is given as 4.4 nmole NADH/nmole P450cam/s; in [2], 42.5 nmole NADH/nmole P450cam/s.

Regarding `CCCC(C)C` [2-methyl pentane], the “Turnover rate measured” value is 3.8 nmole NADH/nmole P450cam/s on wild type P450cam [1] and 11.7 nmole NADH/nmole P450cam/s in assay [2].

Consider `CC(C)CC(C)C` [2,4-dimethyl pentane], for which the “Turnover rate measured” value is recorded as 0.2 nmole NADH/nmole P450cam/s at wild type P450cam [1] and 12.6 nmole NADH/nmole P450cam/s in assay [2].

As to `CC(C)CC(C)(C)C` [2,2,4-trimethyl pentane], the “Turnover rate measured” value on wild type P450cam [1] is 0.9 nmole NADH/nmole P450cam/s; in [2], 5.3 nmole NADH/nmole P450cam/s.

The values above are taken from patent US6100074A, “Mutant mono-oxygenase cytochrome P-450 cam” (BG plc, priority 1994, dated 2000).
